Laboratory results published in patent US20240246918A1, “COMPOUNDS AND COMPOSITIONS AS EIF4E INHIBITORS AND THE USES THEREOF” (Ribometrix, Inc., priority 2022, published 2024).
Like-named read-outs stand apart in the source and are kept apart here.

Experiments:
[1] = test system: COLO 205 colorectal tumor cells; assay: Tumor cell viability inhibition assay (CellTiter-Glo 2.0, 72 hours); type: cell-based; settings: COLO 205 cell viability
In short: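 IC50 derived by 4-parameter fitting after normalizing luminescence to DMSO and max-inhibition wells. Compounds tested as 11 concentrations in 4-fold steps on COLO 205 cells seeded at 1500 per well in RPMI-1640/10% FBS; ATP content measured with CellTiter-Glo 2.0 after 72 h.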

[2] = test system: cyclin D1 protein levels in COLO 205 cells; assay: Cyclin D1 cellular inhibition assay (HTRF, 6 hours); type: cell-based; settings: 6 hours of compound treatment, Cyclin D1 protein levels by HTRF, read-out: COLO 205 6 h Cyclin D1 TR-FRET IC50
In short: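 COLO 205 cells in RPMI-1640 with 10% FBS treated 6 h with 11-point compound dilutions at 1% DMSO final. Lysates assayed for cyclin D1 by HTRF. Signal normalized to DMSO and maximum-inhibition controls, with IC50 from 4-parameter fit.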

[3] = biological target: T1, human eIF4E protein (Homo sapiens, UniProt P06730); assay: Biochemical competitive binding assay (TR-FRET competition, EDA-m7GDP-ATTO-647N probe); settings: read-out: hEIF4E TR-FRET IC50
T1 construct: purchased Novus NBP-45314
T1 sequence (P06730 whole entry): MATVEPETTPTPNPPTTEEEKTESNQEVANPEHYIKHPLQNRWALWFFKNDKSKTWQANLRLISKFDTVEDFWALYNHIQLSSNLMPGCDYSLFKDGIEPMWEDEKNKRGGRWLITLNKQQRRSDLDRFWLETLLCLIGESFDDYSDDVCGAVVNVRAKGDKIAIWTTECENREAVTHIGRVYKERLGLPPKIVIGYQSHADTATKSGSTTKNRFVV
In short: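 IC50 values come from 4-parameter fits of the normalized 665/620 nm TR-FRET ratio. Compound was first incubated 15 min with 4 nM recombinant His-eIF4E bound to 2.5 nM Eu-anti-His antibody, then 15 min with 5 nM m7GDP-ATTO-647N tracer, in pH 7.5 HEPES buffer with 100 mM KCl, Tween-20 and BSA.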

Compound | IC50 ([1]; Homo sapiens, COLO 205, 72 h) [µM] | IC50 ([2]; Homo sapiens, COLO 205, 6 h) [µM] | IC50 [3] [µM] | IC50 [1] [µM] | IC50 [2] [µM]
Cc1cc2c(cn1)CCN(C1CCc3nc(C)n(CCOc4ccc(Cl)cc4-c4cc(C)nc5c(C(=O)O)csc45)c(=O)c3C1)C2 (stereo not drawn) [Compound 177] | < 5 | < 5 | < 0.1 | – | –
Cc1csc(CN(C)C2CCc3nc(C)n(CCOc4ccc(Cl)cc4-c4cc(C)nc5c(C(=O)O)csc45)c(=O)c3C2)n1 (stereo not drawn) [Compound 182] | < 5 | < 5 | < 0.1 | – | –
Cc1cc(-c2cc(Cl)ccc2OCCn2c(C)nc3c(c2=O)CC(N2C[C@@H]4CC(F)(F)C[C@@H]4C2)CC3)c2scc(C(=O)O)c2n1 (stereo partly drawn) [Compound 175] | < 5 | < 5 | < 0.1 | – | –
Cc1cc(-c2cc(Cl)ccc2OCCn2c(C)nc3c(c2=O)CC(N2CC4(CC=C(F)CC4)C2)CC3)c2scc(C(=O)O)c2n1 (stereo not drawn) [Compound 162] | < 5 | < 5 | < 0.1 | – | –
Cc1cc(-c2cc(Cl)ccc2OCCn2c(C)nc3c(c2=O)CC(N(C)CC2CC(F)(F)C2)CC3)c2scc(C(N)=O)c2n1 (stereo not drawn) [Compound 138] | 5 to 20 | > 20 | 0.1 to 0.5 | – | –
Cc1cc(-c2cc(Cl)ccc2OCCn2c(C)nc3c(c2=O)C[C@@H](N2C[C@H]4CC(F)(F)[C@H]4C2)CC3)c2scc(C(=O)O)c2n1 (single isomer, unassigned) [Compound 148] | < 5 | < 5 | < 0.1 | – | –
Cc1cc(-c2cc(Cl)ccc2OCCn2c(C)nc3c(c2=O)CC(N2CCc4ncccc4C2)CC3)c2scc(C(=O)O)c2n1 (stereo not drawn) [Compound 180] | < 5 | < 5 | < 0.1 | – | –
Cc1cc(-c2cc(Cl)ccc2OCCn2c(C)nc3c(c2=O)C[C@H](N2C[C@@H]4CCC(F)(F)[C@@H]4C2)CC3)c2scc(C(=O)O)c2n1 (single isomer, unassigned) [Compound 167] | < 5 | < 5 | < 0.1 | – | –
Cc1cc(-c2cc(Cl)ccc2OCCn2c(C)nc3c(c2=O)CC(N2CCC(OC4CC4)CC2)CC3)c2scc(C(=O)O)c2n1 (stereo not drawn) [Compound 179] | < 5 | < 5 | < 0.1 | – | –
Cc1cc(-c2cc(Cl)ccc2OCCn2c(C)nc3c(c2=O)C[C@H](N2C[C@H]4CCC(F)(F)[C@H]4C2)CC3)c2scc(C(=O)O)c2n1 (single isomer, unassigned) [Compound 166] | < 5 | < 5 | < 0.1 | – | –
Cc1cc(-c2cc(Cl)ccc2OCCn2c(C)nc3c(c2=O)CC(N(C)CC2CC(F)(F)C2)CC3)c2scc(C(=O)NC3CC(F)(F)C3)c2n1 (stereo not drawn) [Compound 145] | 5 to 20 | > 20 | 0.5 to 5 | – | –
Cc1cc(-c2cc(Cl)ccc2OCCn2c(C)nc3c(c2=O)CC(N2CCc4cccnc4C2)CC3)c2scc(C(=O)O)c2n1 (stereo not drawn) [Compound 165] | < 5 | < 5 | < 0.1 | – | –
Cc1cc(-c2cc(Cl)ccc2OCCn2c(C)nc3c(c2=O)CC(N2CC4(CCC(F)(F)CC4)C2)CC3)c2scc(C(=O)O)c2n1 (stereo not drawn) [Compound 161] | < 5 | < 5 | < 0.1 | – | –
Cc1cc(-c2cc(Cl)ccc2OCCn2c(C)nc3c(c2=O)CC(NCC2CC(F)(F)C2)CC3)c2scc(C(=O)O)c2n1 (stereo not drawn) [Compound 153] | 5 to 20 | 5 to 20 | < 0.1 | – | –
Cc1cc(-c2cc(Cl)ccc2OCCn2c(C)nc3c(c2=O)CC(N2CCC4(CC2)CC4(F)F)CC3)c2scc(C(=O)O)c2n1 (stereo not drawn) [Compound 174] | < 5 | < 5 | < 0.1 | – | –
Cc1cc(-c2cc(Cl)ccc2OCCn2c(C)nc3c(c2=O)CC(N2CCc4ccncc4C2)CC3)c2scc(C(=O)O)c2n1 (stereo not drawn) [Compound 171] | < 5 | < 5 | < 0.1 | – | –
Cc1cc(-c2cc(Cl)ccc2OCCn2c(C)nc3c(c2=O)CC(N2CC4C(C2)C4(F)F)CC3)c2scc(C(=O)O)c2n1 (stereo not drawn) [Compound 172] | < 5 | < 5 | < 0.1 | – | –
Cc1cc(-c2cc(Cl)ccc2OCCn2c(C)nc3c(c2=O)CC(N2CCC4(CCC(F)(F)CC4)C2)CC3)c2scc(C(=O)O)c2n1 (stereo not drawn) [Compound 170] | < 5 | < 5 | < 0.1 | – | –
Cc1cc(-c2cc(Cl)ccc2OCCn2c(C)nc3c(c2=O)C[C@@H](N2C[C@@H]4CC(F)(F)[C@@H]4C2)CC3)c2scc(C(=O)O)c2n1 (single isomer, unassigned) [Compound 149] | < 5 | < 5 | < 0.1 | – | –
Cc1cc(-c2cc(Cl)ccc2OCCn2c(C)nc3c(c2=O)CC(N2CCc4sccc4C2)CC3)c2scc(C(=O)O)c2n1 (stereo not drawn) [Compound 181] | < 5 | < 5 | < 0.1 | – | –
Cc1cc(-c2cc(Cl)ccc2OCCn2c(C)nc3c(c2=O)CC(N2CCC(C(F)(F)F)CC2)CC3)c2scc(C(=O)O)c2n1 (stereo not drawn) [Compound 163] | < 5 | < 5 | < 0.1 | – | –

Second part, the compound after the results:

IC50 ([1]; Homo sapiens, COLO 205, 72 h) [µM] | IC50 ([2]; Homo sapiens, COLO 205, 6 h) [µM] | IC50 [3] [µM] | IC50 [1] [µM] | IC50 [2] [µM] | Compound
> 20 | > 20 | < 0.1 | – | – | Cc1cc(-c2cc(Cl)ccc2OCCn2c(C)nc3c(c2=O)C[C@H](N(C)[C@H]2CC[C@](C)(O)CC2)CC3)c2scc(C(=O)O)c2n1 (single isomer, unassigned) [Compound 227]
> 20 | > 20 | < 0.1 | – | – | Cc1cc(-c2cc(Cl)ccc2OCCn2c(C)nc3c(c2=O)C[C@H](N(C)[C@H]2CC[C@@](C)(O)C2)CC3)c2scc(C(=O)O)c2n1 (single isomer, unassigned) [Compound 183]
5 to 20 | 5 to 20 | < 0.1 | – | – | Cc1cc(-c2cc(Cl)ccc2OCCn2c(C)nc3c(c2=O)CC(N(C)C)CO3)c2scc(C(=O)O)c2n1 (stereo not drawn) [Compound 230]
< 5 | < 5 | < 0.1 | – | – | COc1cc(CN(C)C2CCc3nc(C)n(CCOc4ccc(Cl)cc4-c4cc(C)nc5c(C(=O)NS(C)(=O)=O)csc45)c(=O)c3C2)ccn1 (single isomer, unassigned) [Compound 216]
> 20 | 5 to 20 | < 0.1 | – | – | Cc1cc(-c2cc(Cl)ccc2OCCn2c(C)nc3c(c2=O)CC(N(C)Cc2ncccn2)CC3)c2scc(C(=O)O)c2n1 (stereo not drawn) [Compound 202]
> 20 | > 20 | < 0.1 | – | – | Cc1nc2c(c(=O)n1CCOc1ccc(Cl)cc1-c1ccnc(C(=O)O)c1)CC(N(C)CC1CC(F)(F)C1)CC2 (stereo not drawn) [Compound 219]
> 20 | > 20 | < 0.1 | – | – | Cc1cc(-c2ccc(Cl)cc2OCCn2c(C)nc3c(c2=O)C[C@H](N(C)[C@H]2C[C@@](C)(O)C2)CC3)c2scc(C(=O)O)c2n1 (single isomer, unassigned) [Compound 229]
> 20 | > 20 | < 0.1 | – | – | Cc1cc(-c2cc(Cl)ccc2OCCn2c(C)nc3c(c2=O)CC(N(C)[C@H]2C[C@](C)(O)C2)CC3)c2scc(C(=O)O)c2n1 (stereo partly drawn) [Compound 193]
– | – | < 0.1 | < 5 | < 5 | Cc1cc(-c2cc(Cl)ccc2OCCn2c(C)nc3c(c2=O)CC(N(C)C2(C4CCC4)CC2)CC3)c2scc(C(=O)NS(C)(=O)=O)c2n1 (single isomer, unassigned) [Compound 232]
> 20 | > 20 | < 0.1 | – | – | Cc1cc(-c2cc(Cl)ccc2OCCn2c(C)nc3c(c2=O)CC(N(C)Cc2ncc[nH]2)CC3)c2scc(C(=O)O)c2n1 (stereo not drawn) [Compound 190]
< 5 | < 5 | < 0.1 | – | – | Cc1cc(-c2cc(Cl)ccc2OCCn2c(C)nc3c(c2=O)CC(N(C)Cc2ccsc2)CC3)c2scc(C(=O)O)c2n1 (stereo not drawn) [Compound 191]
– | – | < 0.1 | < 5 | 5 to 20 | COC1CCN(C2CCc3nc(C)n(CCOc4ccc(Cl)cc4-c4cc(C)nc5c(C(=O)NS(C)(=O)=O)csc45)c(=O)c3C2)CC1 (single isomer, unassigned) [Compound 240]
< 5 | < 5 | < 0.1 | – | – | Cc1cc(-c2cc(Cl)ccc2OCCn2c(C)nc3c(c2=O)CC(N(C)CC2CC(F)(F)C2)CC3)c2scc(C(=O)O)c2n1 (single isomer, unassigned) [Compound 258]
> 20 | > 20 | < 0.1 | – | – | Cc1cc(-c2cc(Cl)ccc2OCCn2c(C)nc3c(c2=O)C[C@H](N(C)[C@H]2CC[C@@](C)(O)CC2)CC3)c2scc(C(=O)O)c2n1 (single isomer, unassigned) [Compound 224]
< 5 | < 5 | < 0.1 | – | – | Cc1cc(-c2cc(Cl)ccc2OCCn2c(C)nc3c(c2=O)CC(N(C)Cc2ccnc(C(F)(F)F)c2)CC3)c2scc(C(=O)O)c2n1 (stereo not drawn) [Compound 198]
< 5 | < 5 | < 0.1 | – | – | Cc1cc(-c2cc(Cl)ccc2OCCn2c(C)nc3c(c2=O)CC(N(C)Cc2cnccn2)CC3)c2scc(C(=O)O)c2n1 (stereo not drawn) [Compound 199]
5 to 20 | 5 to 20 | < 0.1 | – | – | Cc1cc(-c2cc(Cl)ccc2OCCn2c(C)nc3c(c2=O)CC(N2CCC4(CC2)CC(O)(C(F)(F)F)C4)CC3)c2scc(C(=O)O)c2n1 (stereo not drawn) [Compound 212]
